Reference: US7709488B2, “Imidazopyridine-derivatives as inducible no-synthase inhibitors” (Altana Pharma AG, priority 2003, dated 2010)

Tests used:
[1] = molecular target: human inducible NO-synthase (Homo sapiens, UniProt P35228); assay: Measurement of inducible NO-synthase activity ([3H]arginine conversion, crude cytosolic fraction); assay type: biochemical; details: 0.1 μM arginine, 45 to 60 min at 37° C., pH 7.2; read-out: Inhibition of iNOS activity [measured as −logIC50 (mol/l)] (converted)
Experimental: Measurement of Inducible NO-Synthase Activity
The assay is performed in 96-well microtiter F-plates (Greiner, Frickenhausen, FRG) in a total volume of 100 μl in the presence of 100 nM calmodulin, 226 μM CaCl2, 477 μM MgCl2, 5 μM flavin-adenine-dinucleotide (FAD), 5 μM flavin mononucleotide (FMN), 0.1 mM NADPH, 7 mM glutathione, 10 μM BH4 and 100 mM HEPES pH 7.2. Arginine concentrations are 0.1 μM for enzyme inhibition experiments. 150000 dpm of [^3H]arginine are added to the assay mixture. Enzyme reaction is started by the addition of 4 μg of a crude cytosolic fraction containing human inducible NO-synthase and the reaction mixture is incubated for 45 to 60 min at 37° C. Enzyme reaction is stopped by adding 10 μl of 2M MES-buffer pH 5.0. 50 μl of the incubation mixture are transferred into a MADP N65 filtration microtiter plate (Millipore, Eschbom, FRG) containing already 50 μl of AG-50W-X8 cation exchange resin (Biorad, München, FRG). The resin in the Na loaded form is pre-equilibrated in water and 70 μl (corresponding to 50 μl dry beads) are pipetted under heavy stirring with a 8 channel pipette into the filtration plate. After pipetting 50 μl of the enzyme reaction mixture onto the filtration plates, the plates are placed on a filtration manifold (Porvair, Shepperton, UK) and the flow through is collected in Pico scintillation plates (Packard, Meriden, Conn.). The resin in the filtration plates is washed with 75 μl of water (1×50 μl and 1×25 μl) which is also collected in the same plate as the sample. The total flow through of 125 μl is mixed with 175 μl of Microscint-40 scintillation cocktail (Packard) and the scintillation plate is sealed with TopSeal P-foil (Packard). Scintillation plates are counted in a scintillation counter.
For the measurement of inducible NO-synthase-inhibiting potencies of compounds increasing concentrations of inhibitors were included into the incubation mixture. IC50-values were calculated from the percent inhibition at given concentrations by nonlinear least square fitting.
The inhibitory values determined for the compounds according to the invention follow from the following table A, in which the compound numbers correspond to the example numbers.

COc1ccnc(CCc2nc3cc(-c4ccc(S(=O)(=O)Nc5ccc(C)cc5)cc4)cnc3[nH]2)c1 [Compound 25, 4-{2-[2-(4-Methoxypyridin-2-yl)ethyl]-3H-imidazo[4,5-b]pyridin-6-yl}-N-p-tolyl-benzenesulfonamide]
IC50 [1]: 43.7 nM
melting point: 219 to 220 °C

COc1ccnc(CCc2nc3cc(-c4ccc(S(=O)(=O)Nc5ccccc5OC)cc4)cnc3[nH]2)c1 [Compound 26, 4-{2-[2-(4-Methoxypyridin-2-yl)ethyl]-3H-imidazo[4,5-b]pyridin-6-yl}-N-(2-methoxyphenyl)-benzenesulfonamide]
IC50 [1]: 34.7 nM
melting point: 215 to 216 °C

COc1ccnc(CCc2nc3cc(-c4ccc(S(=O)(=O)Nc5ccc(N(C)C)cc5)cc4)cnc3[nH]2)c1 [Compound 27, N-(4-Dimethylamino-phenyl)-4-{2-[2-(4-methoxypyridin-2-yl)ethyl]-3H-imidazo-[4,5-b]pyridin-6-yl}benzenesulfonamid]
IC50 [1]: 45.7 nM
melting point: 221 to 222 °C
